According to patent US11505548B2, “Heterocyclic compounds and their use for treatment of helminthic infections and diseases” (Celgene Corporation, priority 2019, dated 2022):
Where two headings read alike, the source gives them in different places.

Test system: Onchocerca gutturosa Adult Male Worms
Assay: Onchocerciasis in vitro screening model, worm motility score
Type: cell-based
Details: read-out: O. gutturosa activity level (IC50 or MED)
[1] = Onchocerca gutturosa, Table 1 O. gutturosa, levels A/B/C, motility or MTT readout not specified
[2] = in vitro, Onchocerca gutturosa adult male worms, class A/B/C

Row | SMILES | IC50 [1] | IC50 [2]
1 | CC(C)Oc1cnc(-c2nsc(Nc3ncccc3C(F)(F)F)n2)cc1C(N)=O [Compound 220, 5-isopropoxy-2-(5-(3-(trifluoromethyl)pyridin-2-ylamino)-1,2,4-thiadiazol-3-yl)isonico-tinamide] |  | 200 to 500 nM
2 | O=C(NC1CC(F)(F)C1)c1ccc(Nc2nc(-c3ccc(OC4CC4)cn3)ns2)nc1 [Compound 107, 6-(3-(5-cyclo-propoxypyridin-2-yl)-1,2,4-thiadiazol-5-ylamino)-N-(3,3-difluoro-cyclobutyl) nicotinamide] | 500 to 5000 nM | 
3 | c1ccc(-c2ccnc(Nc3nnc(-c4ccccn4)o3)c2)cc1 [Compound 235, N-(4-phenyl-pyridin-2-yl)-5-(pyridin-2-yl)-1,3,4-oxadiazol-2-amine] |  | 500 to 5000 nM
4 | CC(C)Oc1ccc(-c2nsc(N(C)c3ncccc3C(C)C)n2)nc1 [Compound 130, 3-(5-isopropoxy-pyridin-2-yl)-N-(3-isopropy-lpyridin-2-yl)-N-methyl-1,2,4-thiadiazol-5-amine] | 500 to 5000 nM | 
5 | COc1cccnc1Nc1nc(-c2cc(C(F)(F)F)c(OC(C)C)cn2)ns1 [Compound 167, 3-(5-isopropoxy-4-(trifluoromethyl)pyridin-2-yl)-N-(3-methoxypyridin-2-yl)-1,2,4-thiadiazol-5-amine] | 200 to 500 nM | 
6 | Cc1cccnc1Nc1nc(-c2ccc(S(C)(=O)=O)cn2)ns1 [Compound 79, N-(3-methyl-pyridin-2-yl)-3-(5-(methyl-sulfonyl)pyridin-2-yl)-1,2,4-thiadiazol-5-amine] | 500 to 5000 nM | 
7 | CN(C)c1cccnc1Nc1nc(-c2ccc(OCC(F)(F)F)cn2)ns1 [Compound 101, N3,N3-dimethyl-N2-(3-(5-(2,2,2-trifluoroethoxy)pyridin-2-yl)-1,2,4-thiadiazol-5-yl)pyridine-2,3-diamine] | 200 to 500 nM | 
8 | CC(C)Oc1ccc(-c2nsc(N(C)c3ncccc3N(C)C)n2)nc1 [Compound 139, N2-(3-(5-isoprop-oxypyridin-2-yl)-1,2,4-thiadiazol-5-yl)-N2,N3,N3-trimethylpyridine-2,3-diamine] | 500 to 5000 nM | 
9 | CC(C)Oc1ccc(-c2nsc(Nc3ncccc3N(C)C(=O)C3CCC3)n2)nc1 [Compound 171, N-(2-(3-(5-isopropoxy-pyridin-2-yl)-1,2,4-thiadiazol-5-ylamino)pyridin-3-yl)-N-methylcyclo-butane-carboxamide] | < 200 nM | 
10 | CC(C)Oc1cnc(-c2nsc(Nc3ncccc3C(=O)N3CCCC3)n2)cc1C(F)(F)F [Compound 251, (2-(3-(5-isopropoxy-4-(trifluoromethyl)pyridin-2-yl)-1,2,4-thiadiazol-5-ylamino)pyridin-3-yl) (pyrrolidin-1-yl)methanone] |  | 500 to 5000 nM
11 | Cc1cccnc1Nc1nc(-c2ccc(OC3CCN(C)CC3)cn2)ns1 [Compound 18, 3-(5-(1-methyl-piperidin-4-yloxy)pyridin-2-yl)-N-(3-methylpyridin-2-yl)-1,2,4-thiadiazol-5-amine] | 200 to 500 nM | 
12 | CC(C)Oc1cnc(-c2nsc(Nc3ncccc3N(C)C)n2)cc1C(F)(F)F [Compound 156, N2-(3-(5-isopropoxy-4-(trifluoromethyl)pyridin-2-yl)-1,2,4-thiadiazol-5-yl)-N3,N3-dimethyl-pyridine-2,3-diamine] | < 200 nM | 
13 | COc1ccc(-c2nsc(Nc3ccc(C(C)C)cn3)n2)nc1 [Compound 185, N-(5-isopropyl-pyridin-2-yl)-3-(5-methoxy-pyridin-2-yl)-1,2,4-thiadiazol-5-amine] | 200 to 500 nM | 
14 | Cc1cccnc1Nc1nc(-c2ccc(OC3CCN(C4CC4)CC3)cn2)ns1 [Compound 45, 3-(5-(1-cyclo-propylpiperidin-4-yloxy)pyridin-2-yl)-N-(3-methylpyridin-2-yl)-1,2,4-thiadiazol-5-amine] | < 200 nM | 
15 | Cc1cccnc1Nc1nc(-c2cc(OC3CC3)c(C(F)(F)F)cn2)ns1 [Compound 151, 3-(4-cyclo-propoxy-5-(trifluoromethyl)pyridin-2-yl)-N-(3-methylpyridin-2-yl)-1,2,4-thiadiazol-5-amine] | < 200 nM | 
16 | CC(C)Oc1cnc(-c2nsc(Nc3ncccc3C(C)C)n2)cc1C#N [Compound 201, 5-isopropoxy-2-(5-(3-isopropyl-pyridin-2-ylamino)-1,2,4-thiadiazol-3-yl)isonicotino-nitrile] |  | 500 to 5000 nM
17 | Cc1ccnc(-c2noc(Nc3ncccc3F)n2)c1 [Compound 14, N-(3-fluoro-pyridin-2-yl)-3-(4-methylpyridin-2-yl)-1,2,4-oxadiazol-5-amine] | 500 to 5000 nM | 
18 | CC(C)Oc1ccc(-c2nsc(Nc3ncccc3C(C)C)n2)nc1 [Compound 115, 3-(5-isopropoxy-pyridin-2-yl)-N-(3-isopropyl-pyridin-2-yl)-1,2,4-thiadiazol-5-amine] | < 200 nM | 

Results, then the compound that gave them:

Row | IC50 [1] | IC50 [2] | SMILES
19 | 500 to 5000 nM |  | CC(C)Oc1cnc(-c2nsc(Nc3ncccc3N3CCCC3=O)n2)cc1C(=O)N(C)C [Compound 194, 5-isopropoxy-N,N-dimethyl-2-(5-(3-(2-oxopyrrolidin-1-yl)pyridin-2-ylamino)-1,2,4-thiadiazol-3-yl)isonicotin-amide]
20 |  | 500 to 5000 nM | CC(=O)Nc1ncc(C(F)(F)F)cc1N(C)c1nnc(-c2ccc(OC(C)C)cn2)o1 [Compound 319, N-(3-((5-(5-isopropoxypyridin-2-yl)-1,3,4-oxadiazol-2-yl)(methyl)amino)-5-(trifluoromethyl)pyridin-2-yl)acetamide]
21 |  | 500 to 5000 nM | CC(=O)N(C)c1cc(C(F)(F)F)cnc1Nc1nc(-c2cc3c(cn2)N(C)C(=O)C3(C)C)ns1 [Compound 287, N-methyl-N-(5-(trifluoromethyl)-2-(3-(1,3,3-trimethyl-2-oxo-2,3-dihydro-1H-pyrrolo[2,3-c]pyridin-5-yl)-1,2,4-thiadiazol-5-ylamino)pyridin-3-yl)acetamide]
22 | < 200 nM |  | COc1ccnc(-c2nsc(Nc3ccc(OC(C)C)cn3)n2)c1 [Compound 184, N-(5-isoprop-oxypyridin-2-yl)-3-(4-methoxy-pyridin-2-yl)-1,2,4-thiadiazol-5-amine]
23 | 500 to 5000 nM |  | CC(C)Oc1cccnc1-c1nc(Nc2cc(C(F)(F)F)c(C(C)C)cn2)nn1C [Compound 148, N-(5-(3-isoprop-oxypyridin-2-yl)-1-methyl-1H-1,2,4-triazol-3-yl)-5-isopropyl-4-(trifluoromethyl) pyridin-2-amine]
24 |  | < 200 nM | CC(=O)N(C)c1cc(C(F)(F)F)cnc1Nc1nc(-c2cc(OC(C)C)ccn2)ns1 [Compound 317, N-(2-(3-(4-isopropoxypyridin-2-yl)-1,2,4-thiadiazol-5-ylamino)-5-(trifluoromethyl)pyridin-3-yl)-N-methylacetamide]
25 |  | < 200 nM | CC(C)c1cnc(Nc2nc(-c3cc4c(cn3)N(C)CC4)ns2)c(C(F)(F)F)c1 [Compound 323, N-(5-isopropyl-3-(trifluoromethyl)pyridin-2-yl)-3-(1-methyl-2,3-dihydro-1H-pyrrolo[2,3-c]pyridin-5-yl)-1,2,4-thiadiazol-5-amine]
26 |  | 200 to 500 nM | CC(C)Oc1ccc(-c2nsc(Nc3ncccc3S(=O)(=O)N3CCC3)n2)nc1 [Compound 298, N-(3-(azetidin-1-ylsulfonyl)pyridin-2-yl)-3-(5-isopropoxypyridin-2-yl)-1,2,4-thiadiazol-5-amine]
27 | 200 to 500 nM |  | Cc1cccnc1Nc1nc(-c2ccc(S(=O)(=O)C3CCN(C)CC3)cn2)ns1 [Compound 100, 3-(5-(1-methylpiperidin-4-ylsulfonyl)pyridin-2-yl)-N-(3-methylpyridin-2-yl)-1,2,4-thiadiazol-5-amine]
